Structures can show the parent of a compound that is named as a salt.
Molecular target: T1, JAK3 tyrosine kinase (Homo sapiens, UniProt P52333)
T1 construct: purchased Carnabioscience Co
T1 sequence (P52333 1-1124): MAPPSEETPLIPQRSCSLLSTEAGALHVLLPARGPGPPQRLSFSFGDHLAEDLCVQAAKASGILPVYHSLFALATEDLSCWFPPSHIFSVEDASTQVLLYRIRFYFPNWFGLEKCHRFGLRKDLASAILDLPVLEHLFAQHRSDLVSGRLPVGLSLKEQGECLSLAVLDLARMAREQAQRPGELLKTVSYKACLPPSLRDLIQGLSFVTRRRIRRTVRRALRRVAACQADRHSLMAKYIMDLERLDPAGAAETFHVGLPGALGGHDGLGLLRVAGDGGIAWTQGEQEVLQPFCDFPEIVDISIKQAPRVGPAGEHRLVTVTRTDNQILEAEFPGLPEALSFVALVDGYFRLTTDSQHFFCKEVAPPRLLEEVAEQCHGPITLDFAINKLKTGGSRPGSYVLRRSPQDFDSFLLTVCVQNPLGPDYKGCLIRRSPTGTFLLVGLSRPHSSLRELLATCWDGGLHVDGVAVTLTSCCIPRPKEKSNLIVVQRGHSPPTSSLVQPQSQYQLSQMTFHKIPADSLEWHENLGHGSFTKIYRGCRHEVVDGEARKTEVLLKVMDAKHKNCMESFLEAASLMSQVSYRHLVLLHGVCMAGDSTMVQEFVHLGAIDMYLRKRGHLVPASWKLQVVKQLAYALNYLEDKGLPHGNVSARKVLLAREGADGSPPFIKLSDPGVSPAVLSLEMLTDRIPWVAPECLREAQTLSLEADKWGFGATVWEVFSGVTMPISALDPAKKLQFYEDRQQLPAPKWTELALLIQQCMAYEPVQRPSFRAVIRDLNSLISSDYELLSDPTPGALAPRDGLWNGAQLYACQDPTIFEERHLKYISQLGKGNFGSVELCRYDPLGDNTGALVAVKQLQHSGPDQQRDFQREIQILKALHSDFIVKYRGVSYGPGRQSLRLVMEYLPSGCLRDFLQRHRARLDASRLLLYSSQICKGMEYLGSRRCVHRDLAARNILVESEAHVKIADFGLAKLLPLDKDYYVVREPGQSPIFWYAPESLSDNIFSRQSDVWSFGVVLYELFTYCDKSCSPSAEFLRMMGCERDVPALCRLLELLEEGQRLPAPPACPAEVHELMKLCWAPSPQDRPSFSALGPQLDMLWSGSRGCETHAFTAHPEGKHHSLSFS
Test: Test 1: inhibitory activity to JAK3 tyrosine kinase (ELISA)
Assay type: biochemical
Conditions: 25 μM ATP in substrate solution, 30° C. for 1 hour, n=2
Experimental: Test 1: Test for inhibitory activity to JAK2 and JAK3 tyrosine kinase 1. […] The test material was dissolved in dimethylsulfoxide (DMSO) to be 10 mM, and further diluted with DMSO to be 100-fold concentrations for measurement (1000, 300, 100, 30, 10, 3, 1, 0.3, 0.1, 0.03, 0.01 μM). In addition, solutions diluted with an assay buffer up to 20 times were used as solutions of the test material. As a negative control, a solution of DMSO diluted 20 times with an assay buffer was used. […] 2. Measurement of the Activities of JAK2 and JAK3 Tyrosine Kinases The activity was determined by ELISA. […] The absorbance was measured by means of a micro-plate reader (BIO-RAD; Model 3550) at 450 nm. 3. Analysis of the Results of the Measurement The measured absorbance was subjected to a non-linear regression analysis by means of a SAS system (SAS Institute Inc.), and the concentration (IC50) of the test material which inhibited 50% of the activity of each tyrosine kinase was estimated.

IC50 [nM]	Structure (SMILES)
300	C[C@H](Nc1cc(C(=O)N2CCN(S(C)(=O)=O)CC2)cc(Nc2cnccn2)n1)c1ccc(F)cc1 [Example 153, (S)-{2-[1-(4-Fluorophenyl)ethylamino]-6-(pyrazin-2-ylamino)pyridin-4-yl}[4-(methanesulfonyl)piperazin-1-yl]methanone]
360	COCCNC(=O)c1cc(Nc2cnccn2)nc(N[C@@H](C)c2ccc(F)cc2)c1 [Example 165, (S)-2-[1-(4-Fluorophenyl)ethylamino]-N-(2-methoxyethyl)-6-(pyrazin-2-ylamino)isonicotinamide]
690	C[C@H](Nc1cc(C(=O)N(C)C)cc(Nc2cnccn2)n1)c1ccc(F)cc1 [Example 149, (S)-2-[1-(4-Fluorophenyl)ethylamino]-N,N-dimethyl-6-(pyrazin-2-ylamino)isonicotinamide]
920	C[C@H](Nc1cc(-c2ncon2)cc(Nc2cnccn2)n1)c1ccc(F)cc1 [Example 147, (S)—N^2-[1-(4-Fluorophenyl)ethyl]-4-(1,2,4-oxadiazol-3-yl)-N^6-(pyrazin-2-yl)pyridine-2,6-diamine hydrochloride]
180	C[C@H](Nc1cc(Nc2ncccn2)cc(Nc2cnccn2)n1)c1ccc(F)cc1 [Example 131, (S)—N^2-[1-(4-Fluorophenyl)ethyl]-N^6-(pyrazin-2-yl)-N^4-(pyrimidin-2-yl)pyridine-2,4,6-triamine]
150	C[C@H](Nc1cc(OC2CCOCC2)cc(Nc2cnccn2)n1)c1ccc(F)cc1 [Example 157, (S)—N^2-[1-(4-Fluorophenyl)ethyl]-N^6-(pyrazin-2-yl)-4-(tetrahydro-2H-pyran-4-yloxy)pyridine-2,6-diamine hydrochloride]
170	C[C@H](Nc1cc(C(=O)NC2CC2)cc(Nc2cnccn2)n1)c1ccc(F)cc1 [Example 163, (S)—N-Cyclopropyl-2-[1-(4-fluorophenyl)ethylamino]-6-(pyrazin-2-ylamino)isonicotinamide]
340	C[C@H](Nc1cc(C(=O)N2CCCC2)cc(Nc2cnccn2)n1)c1ccc(F)cc1 [Example 154, (S)-{2-[1-(4-Fluorophenyl)ethylamino]-6-(pyrazin-2-ylamino)pyridin-4-yl}(pyrrolidin-1-yl)methanone]
200	COc1cc(Nc2cnccn2)nc(N[C@@H](C)c2ccc(F)cc2)c1 [Example 127, (S)—N^2-[1-(4-Fluorophenyl)ethyl]-4-methoxy-N^6-(pyrazin-2-yl)pyridine-2,6-diamine]
46	C[C@H](Nc1cc(N2CCS(=O)(=O)CC2)cc(Nc2cnccn2)n1)c1ccc(F)cc1 [Example 128, 4-{2-[(1S)-1-(4-Fluorophenyl)ethylamino]-6-(pyrazin-2-ylamino)pyridin-4-yl}-1λ^6,4-thiomorpholin-1,1-dione]
380	C[C@H](Nc1cc(N2CCC(O)CC2)cc(Nc2cnccn2)n1)c1ccc(F)cc1 [Example 129, (S)-1-{2-[1-(4-Fluorophenyl)ethylamino]-6-(pyrazin-2-ylamino)pyridin-4-yl}piperidin-4-ol]
1400	C[C@H](Nc1nc(Nc2cnccn2)cc(-c2ncon2)n1)c1ccc(F)cc1 [Example 146, (S)—N^2-[1-(4-Fluorophenyl)ethyl]-6-(1,2,4-oxadiazol-3-yl)-N^4-(pyrazin-2-yl)pyrimidine-2,4-diamine hydrochloride]
440	C[C@H](Nc1cc(C(=O)O)cc(Nc2cnccn2)n1)c1ccc(F)cc1 [Example 141, (S)-2-[1-(4-Fluorophenyl)ethylamino]-6-(pyrazin-2-ylamino)isonicotinic acid]
66	COCCOc1cc(Nc2cnccn2)nc(N[C@@H](C)c2ccc(F)cc2)c1 [Example 142, (S)—N^2-[1-(4-Fluorophenyl)ethyl]-4-(2-methoxyethoxy)-N^6-(pyrazin-2-yl)pyridine-2,6-diamine hydrochloride]
370	C[C@H](Nc1cc(C(=O)NCc2ccccc2)cc(Nc2cnccn2)n1)c1ccc(F)cc1 [Example 162, (S)—N-Benzyl-2-[1-(4-fluorophenyl)ethylamino]-6-(pyrazin-2-ylamino)isonicotinamide hydrochloride]
620	COC(=O)c1cc(Nc2cnccn2)nc(N[C@@H](C)c2ccc(F)cc2)c1 [Example 134, Methyl (S)-2-[1-(4-fluorophenyl)ethylamino]-6-(pyrazin-2-ylamino)isonicotinate]
210	C[C@H](Nc1cc(C#N)cc(Nc2cnccn2)n1)c1ccc(F)cc1 [Example 144, (S)-2-[1-(4-Fluorophenyl)ethylamino]-6-(pyrazin-2-ylamino)isonicotinonitrile]
390	CC(C)NC(=O)c1cc(Nc2cnccn2)nc(N[C@@H](C)c2ccc(F)cc2)c1 [Example 155, (S)-2-[1-(4-Fluorophenyl)ethylamino]-N-isopropyl-6-(pyrazin-2-ylamino)isonicotinamide]
230	C[C@H](Nc1cc(C(=O)N2CCOCC2)cc(Nc2cnccn2)n1)c1ccc(F)cc1 [Example 161, (S)-{2-[1-(4-Fluorophenyl)ethylamino]-6-(pyrazin-2-ylamino)pyridin-4-yl}(morpholino)methanone]
490	C[C@H](Nc1cc(C(=O)NC(C)(C)C)cc(Nc2cnccn2)n1)c1ccc(F)cc1 [Example 151, (S)—N-t-Butyl-2-[1-(4-fluorophenyl)ethylamino]-6-(pyrazin-2-ylamino)isonicotinamide]
93	CCNC(=O)c1cc(Nc2cnccn2)nc(N[C@@H](C)c2ccc(F)cc2)c1 [Example 152, (S)—N-Ethyl-2-[1-(4-fluorophenyl)ethylamino]-6-(pyrazin-2-ylamino) isonicotinamide]
170	C[C@H](Nc1cc(C(=O)NCCO)cc(Nc2cnccn2)n1)c1ccc(F)cc1 [Example 159, (S)-2-[1-(4-Fluorophenyl)ethylamino]-N-(2-hydroxyethyl)-6-(pyrazin-2-ylamino)isonicotinamide]
810	COC(=O)c1ccc(Nc2cnccn2)nc1N[C@@H](C)c1ccc(F)cc1 [Example 148, Methyl (S)-2-[1-(4-fluorophenyl)ethylamino]-6-(pyrazin-2-ylamino)nicotinate]
160	C[C@H](Nc1cc(Nc2cnccn2)cc(Nc2cnccn2)n1)c1ccc(F)cc1 [Example 137, (S)—N^2-[1-(4-Fluorophenyl)ethyl]-N^4,N^6-di(pyrazin-2-yl)pyridine-2,4,6-triamine]
580	C[C@H](Nc1nc(Nc2cnccn2)cc(N2CC[C@H]2C(N)=O)n1)c1ccc(F)cc1 [Example 156, (S)-1-{2-[(S)-1-(4-Fluorophenyl)ethylamino]-6-(pyrazin-2-ylamino)pyrimidin-4-yl}azetidine-2-carboxamide]
570	CC(=O)N1CCCN(c2cc(Nc3cnccn3)nc(N[C@@H](C)c3ccc(F)cc3)c2)CC1 [Example 130, (S)-1-(4-{2-[1-(4-fluorophenyl)ethylamino]-6-(pyrazin-2-ylamino)pyridin-4-yl}-1,4-diazepan-1-yl)ethanone]
36	C[C@H](Nc1cc(C(N)=O)cc(Nc2cnccn2)n1)c1ccc(F)cc1 [Example 145, (S)-2-[1-(4-Fluorophenyl)ethylamino]-6-(pyrazin-2-ylamino)isonicotinamide]
2100	C[C@H](Nc1nc(C#N)cc(Nc2cnccn2)n1)c1ccc(F)cc1 [Example 143, (S)-2-[1-(4-Fluorophenyl)ethylamino]-6-(pyrazin-2-ylamino)pyrimidine-4-carbonitrile]
290	C[C@@H](c1ccc(F)cc1)N(C)c1cc(-c2cnn(C)c2)cc(Nc2cnccn2)n1 [Example 139, (S)—N^2-[1-(4-Fluorophenyl)ethyl]-N^2-methyl-4-(1-methyl-1H-pyrazol-4-yl)-N^6-(pyrazin-2-yl)pyridine-2,6-diamine hydrochloride]
